Laboratory results from US20210122724A1, “TETRACARBOXYLIC DIANHYDRIDE, CARBONYL COMPOUND, POLYIMIDE PRECURSOR RESIN, AND POLYIMIDE” (ENEOS Corporation, priority 2018, published 2021).

Assay: Solubility of tetracarboxylic dianhydride in organic solvent (visual, 50 mg sample)
Type: physicochemical
Experimental: As the samples, the tetracarboxylic dianhydride (exo/exo type BzDA) obtained in Example 2 and the tetracarboxylic dianhydride (endo/endo type BzDA) obtained in Comparative Example 2 were separately used to confirm the solubility of each tetracarboxylic dianhydride in an organic solvent as follows. Specifically, after 50 mg of the sample was added to a screw tube, an organic solvent was added little by little into the screw tube, and the amount of the sample dissolved was visually confirmed. Note that, as the organic solvents, N,N′-dimethylacetamide and N-methyl-2-pyrrolidone were used to confirm the solubility in the solvents.

## O=C1OC(=O)C2C3CC(CC3c3ccc(C4CC5CC4C4C(=O)OC(=O)C54)cc3)C12 (stereo not drawn) [exo/exo type BzDA, exo,exo-5,5′-(1,4-phenylene)bis(bicyclo[2.2.1]heptane-2,3-exo-dicarboxylic anhydride)]
Solvent N,N′-dimethylacetamide
  concentration of solution that can be prepared (solubility): ≥ 5 % by mass
Solvent N-methyl-2-pyrrolidone
  concentration of solution that can be prepared (solubility): ≥ 5 % by mass

## O=C1OC(=O)C2C3CC(CC3c3ccc(C4CC5CC4C4C(=O)OC(=O)C54)cc3)C12 (stereo not drawn) [endo/endo type BzDA]
Solvent N,N′-dimethylacetamide
  concentration of solution that can be prepared (solubility): < 1 % by mass
Solvent N-methyl-2-pyrrolidone
  concentration of solution that can be prepared (solubility): < 3.5 % by mass
